US10815276B2, “Cell penetrating peptides and methods of making and using thereof” (Entrada Therapeutics, Inc., priority 2014, dated 2020)
pIC50: −log10 of the molar value. Starred links: 1 amine or outer side, 2 acyl side, 3 side chain; linkers in the order of their positions; H or OH if unused. Positions of bridges follow the written chain, without caps; N, C: chain ends. Non-standard residues stand in square brackets, D forms with d. Residues, ends and D or L forms follow the SMILES beside them. Trimesoyl = O=C(c1cc(C(=O)[*:2])cc(C(=O)[*:3])c1)[*:1]; F2Pmp = N[C@@H](Cc1ccc(C(F)(F)P(=O)(O)O)cc1)C(=O)O; 2Nal = N[C@@H](Cc1ccc2ccccc2c1)C(=O)O; Phg = N[C@H](C(=O)O)c1ccccc1; Pip = O=C(O)[C@@H]1CCCCN1; Dap = NC[C@H](N)C(=O)O

How the values were obtained:
PTPH1 = PTPH1 (Homo sapiens, UniProt P26045); test: PTP inhibition assay (pNPP); assay type: biochemical; conditions: 1 μM inhibitor
Description: (§1) PTP assays were performed in a quartz microcuvette (total volume 150 μL). The reaction mixture contains 100 mM Tris-HCl, pH 7.4, 50 mM NaCl, 2 mM EDTA, 1 mM TCEP, 0-1 μM of PTP inhibitor, and 500 μM para-nitrophenyl phosphate (pNPP). The enzymatic reaction was initiated by the addition of PTP (final concentration 15-75 nM) and monitored continuously at 405 nm on a UV-VIS spectrophotometer. Initial rates were calculated from the reaction progress curves (typically <60 s). The half-maximal inhibition constant (IC50) was defined as the concentration of an inhibitor that reduced the enzyme activity to 50% and was obtained by plotting the rates (V) against the inhibitor concentration [I] and fitting the data against the equation

SHP1 = SHP1 (Homo sapiens, UniProt P29350); test: PTP inhibition assay (pNPP); assay type: biochemical; conditions: 1 μM inhibitor; read-out: Inhibition of SHP-1
Description: as §1

PTPRC = PTPRC (Homo sapiens, UniProt P08575); test: PTP inhibition assay (pNPP); assay type: biochemical; conditions: 1 μM inhibitor
Description: as §1

HePTP = HePTP (Homo sapiens, UniProt P35236); test: PTP inhibition assay (pNPP); assay type: biochemical; conditions: 1 μM inhibitor
Description: as §1

PTPRO = PTPRO (Homo sapiens, UniProt Q16827); test: PTP inhibition assay (pNPP); assay type: biochemical; conditions: 1 μM inhibitor
Description: as §1

[1] = Serum stability test (human serum); assay type: in vitro ADME; conditions: 25% human serum (supernatant after centrifugation), 24 h at 37° C., read-out: Degradation in human serum
Description: The stability tests were carried by modifying a previously reported procedure (Nguyen, L T et al. PLoS One 2010, 5, e12684). Diluted human serum (25%) was centrifuged at 15,000 rpm for 10 min, and the supernatant was collected. A peptide stock solution was diluted into the supernatant to a final concentration of 5 μM and incubated at 37° C. At various time points (0-24 h), 200-μL aliquots were withdrawn and mixed with 50 μL of 15% trichloroacetic acid and incubated at 4° C. overnight. The final mixture was centrifuged at 15,000 rpm for 10 min in a microcentrifuge, and the supernatant was analyzed by reversed-phase HPLC equipped with a C18 column. The amount of remaining peptide (%) was determined by integrating the area underneath the peptide peak (monitored at 214 nm) and comparing with that of the control reaction (no serum).

A549 lung cancer cells = test: Live-cell confocal microscopy of FITC-labeled PTP1B inhibitors; assay type: cell-based, human; conditions: 5 μM FITC-labeled inhibitor, 2 h
Description: Approximately 5×10^4 A549 cells were seeded in 35-mm glass-bottomed microwell dish (MatTek) containing 1 mL of media and cultured for one day. A549 cells were gently washed with DPBS once and treated with the FITC-labeled PTP1B inhibitors (5 μM), dextran^Rho (1 mg mL^−1) in growth media for 2 h at 37° C. in the presence of 5% CO2. The peptide-containing media was removed and the cells were washed with DPBS three times and incubated for 10 min in 1 mL of DPBS containing 5 μM DRAQS. The cells were again washed with DPBS twice. Then the cells were imaged on a Visitech Infinity 3 Hawk 2D-array live cell imaging confocal microscope (with a 60× oil immersion lens) at 37° C. in the presence of 5% CO2. Live-cell confocal microscopic imaging of HEK293 cells after treatment with FITC-labeled Pin1 inhibitors were similarly conducted.

PTP1B = target: T1, PTP1B (Homo sapiens, UniProt P18031); test: PTP inhibition assay (pNPP); assay type: biochemical; conditions: monocyclic peptide inhibitors
T1 construct: The gene coding for the catalytic domain of PTP1B (amino acids 1-321) was amplified; made in house; host or cells: prokaryotic vector pET-22b(+)-ybbR
Description: as §1
[formula] where V0 is the enzymatic reaction rate in the absence of inhibitor. […] The reaction rate (V) was plotted against the pNPP concentration ([S]) and fitted against the equation
[formula] to obtain the Michaelis constant K. The Ki value was obtained by plotting the K values against the inhibitor concentration [I] and fitted to equation
[formula] where K0 is the Michaelis constant in the absence of inhibitor ([I]=0).

[2] = test system: Bronchial epithelial CFBE cells; test: Immunofluorescent staining of ΔF508-CFTR; assay type: cell-based; conditions: 10 μM Corr-4a and 50 μM unlabeled peptide 8
Description: After the treatments, cells were fixed in cold methanol for 20 min. The slides were then incubated in 1% BSA/PBS for 10 min, followed by incubation at 37° C. for 1 h with mouse anti-human monoclonal CFTR antibody (R&D Systems). Thereafter, the slides were incubated at 37° C. for 45 min with Alexa Fluor® 488-conjugated anti-mouse IgG2a secondary antibody. Cells were visualized on a Leica TCS SP2 AOBS confocal laser scanning microscope. All measurements were conducted in a double-blinded manner by two independent investigators.

HeLa cells [3] = test: MTT proliferation assay with Pin1 inhibitors; assay type: cell-based, human; conditions: MTT
Description: HeLa cells (100 μL/each well, 5×10^4 cells/mL) were seeded in a 96-well culture plate and allowed to grow overnight in DMEM supplemented with 10% FBS. […] After that, 10 μL of a MTT stock solution (5 mg/mL) was added into each well. The plate was incubated at 37° C. for 4 h and 100 μL of SDS-HCl solubilizing solution was added into each well, followed by thorough mixing. The plate was incubated at 37° C. overnight and the absorbance of the formazan product was measured at 570 nm on a Molecular Devices Spectramax M5 plate reader. Each experiment was performed in triplicates and the cells untreated with peptide were used as control.

ΔF508-CFTR CFBE cells = test: SPQ intracellular chloride concentration assay; assay type: cell-based; conditions: 20 μM VX809 and 50 μM peptide 8
Description: A SPQ (6-Methoxy-N-(3-sulfopropyl)quinolinium) assay was utilized to estimate the transport activity of ΔF508-CFTR activity in CFBE cells, as the fluorescence of SPQ is negatively correlated with increasing concentration of intracellular chloride (Illsley, N P and Verkman, A S. Biochemistry 1987, 26, 1215). CFBE cells were grown on 96-well plate, which was pre-coated with 1 mg/ml human fibronectin, 3 mg/ml collagen I bovine, and 1 mg/ml bovine serum albumin, using DMEM media supplemented with L-glutamine and 10% FBS. […] Cells were then loaded with SPQ using hypotonic shock at 37° C. for 15 min with 10 mM SPQ containing 1:1 (v/v) Opti-MEM/water solution. The cells were then washed and incubated twice for 10 min with fluorescence quenching NaI buffer (130 mM NaI, 5 mM KNO3, 2.5 mM Ca(NO3)2, 2.5 mM Mg(NO3)2, 10 mM D-glucose, 10 mM N-(2-hydroxyethyl) piperazine-N′-(2-ethanesulfonic) acid (HEPES, pH 7.4)). […] Fluorescence non-specific to CFTR-mediated iodide efflux was measured by incubating the cells with the activation cocktail and the CFTR specific inhibitor GlyH101 (10 μM). The effects of CAL-PDZ inhibitors were evaluated by the fluorescence increasing rate above the basal level. The fluorescence of dequenched SPQ was measured using the plate reader VICTOR X3 (Perkin Elmer) with excitation wavelength at 350 nm and DAPI emission filter. […]

CAL-PDZ domain = CAL-PDZ domain (Homo sapiens, UniProt Q9HD26); test: Fluorescence anisotropy binding to CAL-PDZ; conditions: absence of a reducing agent
Description: The full fluorescence anisotropy (FA) titration experiment was performed by incubating 100 nM fluorophore-labeled peptidyl ligands with varying concentrations (0-6 μM) of CAL-PDZ (Cushing, P R et al. […] The FA values were measured on a Molecular Devices Spectramax M5 spectrofluorimeter, with excitation and emission wavelengths at 485 nm and 525 nm, respectively. Equilibrium dissociation constants (KD) were determined by plotting the fluorescence anisotropy values as a function of CAL-PDZ concentration. The titration curves were fitted to the following equation, which assumes a 1:1 binding stoichiometry
where Y is the measured anisotropy at a given CAL-PDZ concentration x; L is the bicyclic peptide concentration; Qb/Qf is the correction fact for dye-protein interaction; Amax is the maximum anisotropy when all the peptides are bound to CAP-PDZ, while Amin is the minimum anisotropy when all the peptides are free.

HeLa cells [4] = test: Live-cell confocal microscopy of FITC-labeled peptides; assay type: cell-based, human; conditions: 5 μM
Description: To detect peptide internalization, 1 mL of HeLa cell suspension (5×10^4 cells) was seeded in a 35 mm glass-bottomed microwell dish (MatTek) and cultured overnight. Cells were gently washed with DPBS twice and treated with FITC labeled peptides (5 μM) and dextran^Rho (0.5 mg mL^−1) in phenol-red free DMEM containing 1% serum at 37° C. for 1 h in the presence of 5% CO2. After removal of the medium, the cells were gently washed with DPBS twice and incubated with 5 μM DRAQS in DPBS for 10 min. The cells were again washed with DPBS twice and imaged on a Visitech Infinity 3 Hawk 2D-array live cell imaging confocal microscope. Images were captured under the same parameters and adjusted under the same setting using MetaMorph (Molecular Devices).

Chain of HePTP (P35236 whole entry, species assumed): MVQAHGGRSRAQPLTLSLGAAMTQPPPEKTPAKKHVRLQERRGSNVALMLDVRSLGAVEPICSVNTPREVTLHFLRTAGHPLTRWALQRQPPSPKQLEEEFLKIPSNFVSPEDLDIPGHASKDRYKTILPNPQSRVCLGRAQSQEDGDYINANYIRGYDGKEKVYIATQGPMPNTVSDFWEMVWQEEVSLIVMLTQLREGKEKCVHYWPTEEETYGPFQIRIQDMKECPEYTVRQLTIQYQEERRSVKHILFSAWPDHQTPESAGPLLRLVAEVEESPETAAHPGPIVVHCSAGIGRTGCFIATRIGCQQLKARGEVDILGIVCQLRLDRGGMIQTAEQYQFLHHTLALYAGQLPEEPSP
Chain of PTPRC (P08575 26-1306, species assumed): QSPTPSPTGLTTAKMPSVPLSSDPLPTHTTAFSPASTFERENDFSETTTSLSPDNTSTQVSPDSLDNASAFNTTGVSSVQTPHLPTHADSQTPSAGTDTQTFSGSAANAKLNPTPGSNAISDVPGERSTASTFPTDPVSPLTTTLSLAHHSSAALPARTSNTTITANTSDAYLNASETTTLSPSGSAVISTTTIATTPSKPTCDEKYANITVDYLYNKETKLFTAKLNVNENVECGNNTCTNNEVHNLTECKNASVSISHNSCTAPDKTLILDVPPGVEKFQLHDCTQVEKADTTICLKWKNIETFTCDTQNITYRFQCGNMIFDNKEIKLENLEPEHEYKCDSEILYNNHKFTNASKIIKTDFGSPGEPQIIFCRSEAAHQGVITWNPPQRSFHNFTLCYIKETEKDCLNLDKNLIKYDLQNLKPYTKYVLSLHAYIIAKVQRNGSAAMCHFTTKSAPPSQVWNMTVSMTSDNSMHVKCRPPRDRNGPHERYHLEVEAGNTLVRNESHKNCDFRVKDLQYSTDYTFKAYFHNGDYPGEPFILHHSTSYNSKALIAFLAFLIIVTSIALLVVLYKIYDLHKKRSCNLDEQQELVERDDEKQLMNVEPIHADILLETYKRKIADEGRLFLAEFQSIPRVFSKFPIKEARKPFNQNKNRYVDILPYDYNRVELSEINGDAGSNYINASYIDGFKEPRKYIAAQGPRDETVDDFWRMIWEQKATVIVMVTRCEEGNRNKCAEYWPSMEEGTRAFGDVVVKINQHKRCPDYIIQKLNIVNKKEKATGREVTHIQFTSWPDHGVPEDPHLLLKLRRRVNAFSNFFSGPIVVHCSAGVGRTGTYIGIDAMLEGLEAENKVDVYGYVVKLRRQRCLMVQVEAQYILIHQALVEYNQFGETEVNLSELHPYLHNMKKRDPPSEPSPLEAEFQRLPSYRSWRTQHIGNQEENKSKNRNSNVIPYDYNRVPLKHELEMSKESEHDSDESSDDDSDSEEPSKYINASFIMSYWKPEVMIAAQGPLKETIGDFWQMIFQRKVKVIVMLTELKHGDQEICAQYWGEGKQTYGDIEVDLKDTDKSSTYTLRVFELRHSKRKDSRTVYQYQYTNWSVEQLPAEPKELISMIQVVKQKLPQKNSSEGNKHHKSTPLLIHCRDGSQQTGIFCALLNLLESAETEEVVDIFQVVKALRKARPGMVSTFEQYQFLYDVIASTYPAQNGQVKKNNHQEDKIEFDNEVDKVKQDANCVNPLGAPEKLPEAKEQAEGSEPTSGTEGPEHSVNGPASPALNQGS
Chain of PTPRO (Q16827 30-1216): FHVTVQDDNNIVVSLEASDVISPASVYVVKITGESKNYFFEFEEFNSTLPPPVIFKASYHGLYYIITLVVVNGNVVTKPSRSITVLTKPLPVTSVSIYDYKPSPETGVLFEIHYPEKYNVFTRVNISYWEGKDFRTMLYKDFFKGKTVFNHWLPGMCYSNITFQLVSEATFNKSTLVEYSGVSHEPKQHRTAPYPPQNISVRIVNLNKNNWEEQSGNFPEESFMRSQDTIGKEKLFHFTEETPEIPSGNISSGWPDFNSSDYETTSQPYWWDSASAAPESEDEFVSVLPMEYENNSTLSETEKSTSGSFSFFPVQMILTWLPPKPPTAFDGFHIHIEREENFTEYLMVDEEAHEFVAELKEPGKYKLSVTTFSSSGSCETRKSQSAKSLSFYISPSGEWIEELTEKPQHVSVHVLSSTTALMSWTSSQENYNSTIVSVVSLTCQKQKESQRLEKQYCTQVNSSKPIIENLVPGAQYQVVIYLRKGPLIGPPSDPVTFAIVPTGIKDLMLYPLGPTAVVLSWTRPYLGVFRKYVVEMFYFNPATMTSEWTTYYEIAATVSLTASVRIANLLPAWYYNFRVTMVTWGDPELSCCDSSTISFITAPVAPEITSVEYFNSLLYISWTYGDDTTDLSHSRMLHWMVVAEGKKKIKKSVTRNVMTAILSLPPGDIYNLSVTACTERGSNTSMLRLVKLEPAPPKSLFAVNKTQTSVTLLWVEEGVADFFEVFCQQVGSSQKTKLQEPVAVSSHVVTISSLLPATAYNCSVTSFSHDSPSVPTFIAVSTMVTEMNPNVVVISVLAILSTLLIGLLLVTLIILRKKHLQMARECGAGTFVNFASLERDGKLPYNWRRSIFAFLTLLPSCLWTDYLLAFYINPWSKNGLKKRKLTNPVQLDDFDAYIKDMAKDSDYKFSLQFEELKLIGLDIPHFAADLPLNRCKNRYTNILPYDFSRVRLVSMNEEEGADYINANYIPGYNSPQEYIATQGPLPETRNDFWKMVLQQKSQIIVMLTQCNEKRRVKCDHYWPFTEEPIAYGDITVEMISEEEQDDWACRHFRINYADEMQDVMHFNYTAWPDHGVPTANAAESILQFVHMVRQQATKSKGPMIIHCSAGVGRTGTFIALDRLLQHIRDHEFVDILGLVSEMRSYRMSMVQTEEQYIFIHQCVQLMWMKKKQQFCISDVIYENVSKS
Chain of PTPH1 (P26045 whole entry, species assumed): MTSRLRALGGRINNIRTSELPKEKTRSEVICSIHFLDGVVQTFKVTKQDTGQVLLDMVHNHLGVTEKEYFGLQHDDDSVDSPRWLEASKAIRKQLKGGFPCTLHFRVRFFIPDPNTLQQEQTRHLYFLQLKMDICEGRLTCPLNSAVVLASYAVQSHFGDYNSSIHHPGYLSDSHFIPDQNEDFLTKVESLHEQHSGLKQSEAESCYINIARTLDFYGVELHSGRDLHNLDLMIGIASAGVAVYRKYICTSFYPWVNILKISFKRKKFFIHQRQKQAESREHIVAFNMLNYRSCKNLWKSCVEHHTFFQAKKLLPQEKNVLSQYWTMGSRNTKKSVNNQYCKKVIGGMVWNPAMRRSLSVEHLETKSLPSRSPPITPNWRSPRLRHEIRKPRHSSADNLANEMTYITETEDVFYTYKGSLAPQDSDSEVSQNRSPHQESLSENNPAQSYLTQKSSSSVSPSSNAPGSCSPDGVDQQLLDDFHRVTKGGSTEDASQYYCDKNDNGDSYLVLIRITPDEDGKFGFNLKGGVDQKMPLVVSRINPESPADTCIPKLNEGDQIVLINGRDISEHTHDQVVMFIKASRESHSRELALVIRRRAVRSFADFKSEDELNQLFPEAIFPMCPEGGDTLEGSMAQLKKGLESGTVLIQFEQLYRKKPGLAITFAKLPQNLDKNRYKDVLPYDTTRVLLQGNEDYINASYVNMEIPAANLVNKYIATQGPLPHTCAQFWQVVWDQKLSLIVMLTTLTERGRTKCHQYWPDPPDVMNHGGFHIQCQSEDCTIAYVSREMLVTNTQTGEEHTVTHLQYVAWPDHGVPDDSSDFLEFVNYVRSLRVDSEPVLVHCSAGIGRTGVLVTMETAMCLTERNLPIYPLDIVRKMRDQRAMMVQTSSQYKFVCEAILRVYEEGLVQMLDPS
Chain of SHP1 (P29350 whole entry): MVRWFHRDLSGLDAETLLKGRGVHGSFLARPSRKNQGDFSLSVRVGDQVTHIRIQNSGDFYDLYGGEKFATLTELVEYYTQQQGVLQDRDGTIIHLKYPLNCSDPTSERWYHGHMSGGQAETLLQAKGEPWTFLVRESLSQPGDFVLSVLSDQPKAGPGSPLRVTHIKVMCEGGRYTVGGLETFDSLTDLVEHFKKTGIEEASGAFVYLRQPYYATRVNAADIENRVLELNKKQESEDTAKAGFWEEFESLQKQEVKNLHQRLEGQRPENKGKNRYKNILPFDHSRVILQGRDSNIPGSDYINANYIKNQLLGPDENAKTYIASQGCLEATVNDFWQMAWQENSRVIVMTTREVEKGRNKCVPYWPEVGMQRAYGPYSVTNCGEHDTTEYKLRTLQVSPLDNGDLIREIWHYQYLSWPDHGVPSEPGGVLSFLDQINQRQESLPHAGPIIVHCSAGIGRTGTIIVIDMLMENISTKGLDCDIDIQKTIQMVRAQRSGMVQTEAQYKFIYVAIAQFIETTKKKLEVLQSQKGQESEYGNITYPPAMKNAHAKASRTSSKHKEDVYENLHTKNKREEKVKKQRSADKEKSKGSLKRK
T1 sequence (P18031 1-321): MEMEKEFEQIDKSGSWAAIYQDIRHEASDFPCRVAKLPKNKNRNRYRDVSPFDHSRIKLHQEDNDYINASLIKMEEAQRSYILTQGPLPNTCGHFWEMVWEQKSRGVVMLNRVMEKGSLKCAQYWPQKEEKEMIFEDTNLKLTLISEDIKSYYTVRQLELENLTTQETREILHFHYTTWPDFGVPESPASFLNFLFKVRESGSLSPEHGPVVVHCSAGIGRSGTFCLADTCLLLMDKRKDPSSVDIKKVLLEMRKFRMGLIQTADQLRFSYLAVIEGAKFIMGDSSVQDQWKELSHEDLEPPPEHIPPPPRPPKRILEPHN

**Q.** For `CC(C)[C@H]1NC(=O)[C@H](CO)NC(=O)c2cc3cc(c2)C(=O)NC[C@H](NC(=O)[C@H](Cc2c[nH]cn2)NC(=O)[C@H](Cc2ccc(C(F)(F)P(=O)(O)O)cc2)NC(=O)[C@@H]2CCCN2C1=O)C(=O)N[C@@H](CCCNC(=N)N)C(=O)N[C@@H](CCCNC(=N)N)C(=O)N[C@@H](CCCNC(=N)N)C(=O)N[C@@H](CCCNC(=N)N)C(=O)N[C@@H](Cc1ccc2ccccc2c1)C(=O)N[C@@H](Cc1ccccc1)C(=O)N[C@H](C(=O)N[C@@H](CCCCN)C(N)=O)CNC3=O` [Bicyclic Inhibitor 4] (S[dV]P[F2Pmp]H[Dap]RRRR[2Nal]F[Dap]K-NH2; linker N-6-13 via Trimesoyl; C-terminus assumed), which inhibition at 1 µM (PTPH1) is on record?
**A.** < 10%

**Q.** And the inhibition at 1 µM (SHP1)?
**A.** < 10%

**Q.** What about the inhibition at 1 µM (PTPRC) of the same molecule?
**A.** < 10%

**Q.** And the inhibition at 1 µM (HePTP)?
**A.** < 10%

**Q.** And the inhibition at 1 µM (PTPRO)?
**A.** < 10%

**Q.** What about the metabolised at 24 h, 5 μM [1] of the same molecule?
**A.** ~10%

**Q.** With `CC(C)[C@H]1NC(=O)[C@H](CO)NC(=O)[C@H](CCC(N)=O)NC(=O)[C@H](Cc2ccccc2)NC(=O)[C@H](Cc2ccc3ccccc3c2)NC(=O)[C@H](CCCNC(=N)N)NC(=O)[C@H](CCCNC(=N)N)NC(=O)[C@H](CCCNC(=N)N)NC(=O)[C@H](CCCNC(=N)N)NC(=O)[C@H](Cc2c[nH]cn2)NC(=O)[C@H](Cc2ccc(C(F)(F)P(=O)(O)O)cc2)NC(=O)[C@@H]2CCCN2C1=O` [Monocyclic Inhibitor 2, cyclo(Ser-D-Val-Pro-F2Pmp-His-Arg-Arg-Arg-Arg-Nal-Phe-Gln)] (cyclo(S[dV]P[F2Pmp]HRRRR[2Nal]FQ)) as the molecule, how does the “Cellular uptake (confocal)” value (A549 lung cancer cells) read?
**A.** poor cellular uptake

**Q.** What about the pIC50 (PTP1B) of the same molecule?
**A.** ~7.52

**Q.** For `C[C@@H]1NC(=O)[C@H](CCCNC(=N)N)NC(=O)[C@H](Cc2ccc3ccccc3c2)NC(=O)[C@@H]2CCCCN2C(=O)[C@@H]([C@H](C)O)NC(=O)[C@H](c2ccccc2)NC(=O)[C@H](Cc2c[nH]cn2)NC(=O)c2cc3cc(c2)C(=O)NC[C@H](NC(=O)[C@@H](C)NC1=O)C(=O)N[C@@H](Cc1ccccc1)C(=O)N[C@@H](Cc1ccc2ccccc2c1)C(=O)N[C@@H](CCCNC(=N)N)C(=O)N[C@@H](CCCNC(=N)N)C(=O)N[C@@H](CCCNC(=N)N)C(=O)N[C@@H](CCCNC(=N)N)C(=O)N[C@H](C(=O)N[C@@H](CCCCN)C(N)=O)CNC3=O` [Peptide 8, bicyclo[Tm-(His-Phg-D-Thr-Pip-Nal-Arg-Ala-D-Ala)-Dap-(Phe-Nal-Arg-Arg-Arg-Arg-Dap)]-Lys] (H[Phg][dT][Pip][2Nal]RA[dA][Dap]F[2Nal]RRRR[Dap]K-NH2; linker N-9-16 via Trimesoyl; C-terminus assumed), which “ΔF508-CFTR at the cell surface” value [2] is on record?
**A.** much greater amounts of the protein at the cell surface

**Q.** What about the “Effect on cell growth” value (HeLa cells [3]) of the same molecule?
**A.** inhibited cell growth, but to a lesser extent than inhibitor 7

**Q.** And the “Ion channel activity of ΔF508-CFTR” value (ΔF508-CFTR CFBE cells)?
**A.** acted synergistically

**Q.** And the “Binding to CAL-PDZ domain” value (CAL-PDZ domain)?
**A.** no detectable binding

**Q.** And the “Intracellular FITC fluorescence (confocal)” value (HeLa cells [4])?
**A.** intense and diffuse fluorescence throughout the entire cell
